Assay [1] deals with T1, recombinant human kappa opioid receptor (Homo sapiens, UniProt P41145).
T1 construct: expressed in transfected cells; host or cells: HEK293 (membranes)
The assay can be described thus: biochemical. The note with it: membranes of HEK293 cells; radioligand [3H]diprenorphine 0.5 nM; read-out: Binding Affinity Kappa IC50.

Assay [2] concerns the target T2, recombinant human mu opioid receptor (Homo sapiens, UniProt P35372).
T2 construct: expressed in transfected cells; host or cells: HEK293 (membranes)
Description: Opioid receptor radioligand binding assay, mu. The note with it: for IC50: radioligand [3H]DAMGO 0.5 nM; for Selectivity μ/k: ratio of Mu IC50 to Kappa IC50.

Assay [3] has as its target T3, recombinant human delta opioid receptor (Homo sapiens, UniProt P41143).
T3 construct: expressed in transfected cells; host or cells: HEK293 (membranes)
The assay can be described thus: Opioid receptor radioligand binding assay, delta. The note with it: for IC50: radioligand [3H]DADLE 0.5 nM; for Selectivity δ/k: ratio of Delta IC50 to Kappa IC50.

For assay [4], the target named is T1, recombinant human kappa opioid receptor. Description: cell-based. In kind it is cell-based. The settings on record: for EC50: read-out: Cell Assay (FLIPR Calcium) Kappa EC50.
Where [5] appears, read: membranes of HEK293 cells, read-out: Binding Affinity Mu IC50.
[6] abbreviates: membranes of HEK293 cells, read-out: Binding Affinity Delta IC50.
The mark [7] stands for this setting: Binding Affinity Mu IC50, membranes of HEK293 cells.
Setting [8] is: Binding Affinity Delta IC50, membranes of HEK293 cells.

Read-outs that look alike come from different tables or passages of the source. Bounds are passed on as bounds.

T2 sequence (P35372 whole entry): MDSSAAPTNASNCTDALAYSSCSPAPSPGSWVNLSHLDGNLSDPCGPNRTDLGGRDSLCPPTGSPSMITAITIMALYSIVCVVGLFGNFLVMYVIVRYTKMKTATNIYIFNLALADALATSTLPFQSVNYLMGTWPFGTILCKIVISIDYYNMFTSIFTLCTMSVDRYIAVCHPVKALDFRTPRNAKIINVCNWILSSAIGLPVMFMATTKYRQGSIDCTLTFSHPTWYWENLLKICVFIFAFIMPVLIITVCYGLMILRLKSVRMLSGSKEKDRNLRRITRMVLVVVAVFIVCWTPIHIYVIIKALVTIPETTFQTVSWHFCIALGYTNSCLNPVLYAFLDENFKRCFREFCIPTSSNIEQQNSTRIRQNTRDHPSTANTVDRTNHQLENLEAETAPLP
T1 sequence (P41145 whole entry): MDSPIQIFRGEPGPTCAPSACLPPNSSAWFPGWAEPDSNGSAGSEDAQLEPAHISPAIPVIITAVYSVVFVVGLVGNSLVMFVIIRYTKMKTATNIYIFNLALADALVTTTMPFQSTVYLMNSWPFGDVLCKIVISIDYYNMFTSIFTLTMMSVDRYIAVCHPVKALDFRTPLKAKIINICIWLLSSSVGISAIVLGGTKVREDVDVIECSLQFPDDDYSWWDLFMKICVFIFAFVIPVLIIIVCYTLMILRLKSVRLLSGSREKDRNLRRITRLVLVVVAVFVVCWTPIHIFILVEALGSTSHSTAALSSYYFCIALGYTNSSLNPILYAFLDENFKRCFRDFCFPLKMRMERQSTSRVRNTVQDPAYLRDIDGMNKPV
T3 sequence (P41143 whole entry): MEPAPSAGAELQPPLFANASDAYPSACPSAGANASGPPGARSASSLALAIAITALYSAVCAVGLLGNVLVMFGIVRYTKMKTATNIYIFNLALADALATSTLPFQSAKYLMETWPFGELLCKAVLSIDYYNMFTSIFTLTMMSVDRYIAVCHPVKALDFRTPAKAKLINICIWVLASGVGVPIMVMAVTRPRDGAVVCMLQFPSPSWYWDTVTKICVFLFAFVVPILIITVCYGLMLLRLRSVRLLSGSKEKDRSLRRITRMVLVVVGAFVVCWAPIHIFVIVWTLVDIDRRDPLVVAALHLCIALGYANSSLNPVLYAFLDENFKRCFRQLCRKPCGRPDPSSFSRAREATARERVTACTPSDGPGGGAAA

Regarding “17-cyclopropylmethyl-10-oxo-4,5α-epoxy-3,14β-dihydroxy-6β-((1R,2R)—N-methyl-2-(3-(4-hydroxylphenyl)-cyclopropanecarboxamido)morphinan [Compound 23b]”, the IC50 in assay [1] was determined as 0.62 nM; in assay [2] (setting [5]), 73.7 nM; in assay [3] (setting [6]), 528 nM. Moreover, the “Selectivity μ/k” value in assay [2] is recorded as 118.9. Also, the “Selectivity δ/k” value in assay [3] is reported as 1331.

Consider “17-cyclopropylmethyl-10-oxo-4,5α-epoxy-3,14β-dihydroxy-6β-((1S,2S)—N-methyl-2-(3-(4-hydroxylphenyl)-cyclopropanecarboxamido)morphinan [Compound 23a]”, for which the IC50 was determined as 0.07 nM in assay [1], 12.2 nM in assay [2] (setting [5]) and 261 nM in assay [3] (setting [6]). In addition, in assay [2], the “Selectivity μ/k” value worked out at 174.3. Besides, in assay [3], the “Selectivity δ/k” value is 3731.

Take `CN(C(=O)C1CC1c1ccoc1)C1CCC2(O)C3Cc4ccc(O)c5c4C2(CCN3CC2(O)CC2)C1O5` (single isomer, unassigned) [Compound 16a]: the IC50 in assay [1] worked out at 0.94 nM; in assay [2] (setting [7]) it was 1.55 nM; in assay [3] (setting [8]) it was 5.46 nM. In addition, the “Selectivity μ/k” value in assay [2] was found to be 1.65. The “Selectivity δ/k” value in assay [3] stood at 5.80.

With `CN(C(=O)C1CC1c1ccoc1)C1CCC2(O)C3Cc4ccc(O)c5c4C2(CCN3CC2(O)CC2)C1O5` (single isomer, unassigned) [Compound 16b], the IC50 came to 6.74 nM in assay [1], 7.18 nM in assay [2] (setting [7]) and 34 nM in assay [3] (setting [8]). The “Selectivity μ/k” value in assay [2] was 1.07. The “Selectivity δ/k” value in assay [3] amounted to 5.05.

On to `CN(C(=O)C1CC1c1ccsc1)C1CCC2(O)C3Cc4ccc(O)c5c4C2(CCN3CC2(O)CC2)C1O5` (single isomer, unassigned) [Compound 18a], for which the IC50 in assay [1] was 0.97 nM; in assay [2] (setting [7]), 1.58 nM; in assay [3] (setting [8]) it was 10.9 nM. In assay [2], the “Selectivity μ/k” value worked out at 1.63. The “Selectivity δ/k” value in assay [3] is given as 11.3.

With `CN(C(=O)C1CC1c1ccsc1)C1CCC2(O)C3Cc4ccc(O)c5c4C2(CCN3CC2(O)CC2)C1O5` (single isomer, unassigned) [Compound 18b], the results for the IC50 in assay [1], in assay [2] (setting [7]) and in assay [3] (setting [8]) were 6.15 nM, 76.8 nM and 118 nM, respectively. In addition, the “Selectivity μ/k” value in assay [2] came to 12.5. Moreover, the “Selectivity δ/k” value in assay [3] stood at 19.2.

In the case of `CN(C(=O)C1CC1c1ccsc1)C1CCC2(O)C3Cc4ccc(O)c5c4C2(CCN3CC2(O)CC2)C1O5` (single isomer, unassigned) [Compound 19a], the IC50 was 0.17 nM in assay [1], 1.37 nM in assay [2] (setting [7]) and 16.3 nM in assay [3] (setting [8]). Also, in assay [2], the “Selectivity μ/k” value stood at 8.05. Besides, in assay [3], the “Selectivity δ/k” value is on record as 96.1.

In the case of `CN(C(=O)C1CC1c1ccc(O)cc1)C1CCC2(O)C3Cc4ccc(O)c5c4C2(CCN3CC2(O)CC2)C1O5` (single isomer, unassigned) [Compound 20a], the results for the IC50 in assay [1], in assay [2] (setting [7]) and in assay [3] (setting [8]) were 102 nM, 119 nM and 161 nM, respectively. In addition, the “Selectivity μ/k” value in assay [2] came to 1.12. In addition, the “Selectivity δ/k” value in assay [3] is given as 1.57.

As to `CN(C(=O)C1CC1c1ccc(O)cc1)C1CCC2(O)C3Cc4ccc(O)c5c4C2(CCN3CC2(O)CC2)C1O5` (single isomer, unassigned) [Compound 21a], the IC50 stood at 0.85 nM in assay [1], 1.25 nM in assay [2] (setting [7]) and 30.2 nM in assay [3] (setting [8]). Also, in assay [2], the “Selectivity μ/k” value is 1.47. The “Selectivity δ/k” value in assay [3] was determined as 35.6.

Take `CN(C(=O)[C@H]1C[C@@H]1c1ccoc1)[C@@H]1CC[C@@]2(O)[C@H]3Cc4ccc(O)c5c4[C@@]2(CCN3CC2CC2)[C@H]1O5` [Compound 5a, 17-Cyclopropylmethyl-4,5α-epoxy-3,14β-dihydroxy-6β-((1S,2S)—N-methyl-2-(3-furyl)-cyclopropanecarboxamido)morphinan]: the IC50 in assay [1] turned out to be 0.42 nM; in assay [2] (setting [7]), 10.7 nM; in assay [3] (setting [8]), 86.5 nM. Further, the “Selectivity δ/k” value in assay [3] stood at 207.59. Further, the “FLIPR calcium cell assay compared with reference” value in assay [4] (comparison in words on Table 2) was “improved cell assays over U-69596”. Further, the EC50 in assay [4] worked out at 2.64 nM.

On to `CN(C(=O)[C@@H]1C[C@H]1c1ccoc1)[C@@H]1CC[C@@]2(O)[C@H]3Cc4ccc(O)c5c4[C@@]2(CCN3CC2CC2)[C@H]1O5` [Compound 5b, 17-Cyclopropylmethyl-4,5α-epoxy-3,14β-dihydroxy-6β-((1R,2R)—N-methyl-2-(3-furyl)-cyclopropanecarboxamido)morphinan], for which the IC50 in assay [1] was 7.76 nM; in assay [2] (setting [7]), 3.47 nM; in assay [3] (setting [8]), 69 nM. The “Selectivity μ/k” value in assay [2] was 0.45. The “Selectivity δ/k” value in assay [3] was found to be 8.90. Moreover, the EC50 in assay [4] worked out at 9.7 nM.

Regarding `CN(C(=O)[C@H]1C[C@@H]1c1ccoc1)[C@H]1CC[C@@]2(O)[C@H]3Cc4ccc(O)c5c4[C@@]2(CCN3CC2CC2)[C@H]1O5` [Compound 7a, 17-Cyclopropylmethyl-4,5α-epoxy-3,14β-dihydroxy-6α-((1S,2S)—N-methyl-2-(3-furyl)-cyclopropanecarboxamido)morphinan], the IC50 in assay [1] was found to be 0.05 nM; in assay [2] (setting [7]), 0.3 nM; in assay [3] (setting [8]), 0.66 nM. Besides, the “Selectivity μ/k” value in assay [2] came to 5.85. In assay [3], the “Selectivity δ/k” value stood at 12.6. The EC50 in assay [4] came out at 6.86 nM.

Turning to `CN(C(=O)[C@@H]1C[C@H]1c1ccoc1)[C@H]1CC[C@@]2(O)[C@H]3Cc4ccc(O)c5c4[C@@]2(CCN3CC2CC2)[C@H]1O5` [Compound 7b, 17-Cyclopropylmethyl-4,5α-epoxy-3,14β-dihydroxy-6α-((1R,2R)—N-methyl-2-(3-furyl)-cyclopropanecarboxamido)morphinan], the IC50 in assay [1] was determined as 0.24 nM; in assay [2] (setting [7]), 0.52 nM; in assay [3] (setting [8]), 0.68 nM. In assay [2], the “Selectivity μ/k” value was 2.16. Further, the “Selectivity δ/k” value in assay [3] turned out to be 2.82. Besides, in assay [4], the EC50 came to 3.76 nM.

For the molecule `CN(C(=O)[C@H]1C[C@@H]1c1ccoc1)[C@@H]1CC[C@@]2(O)[C@H]3Cc4ccc(O)c5c4[C@@]2(CCN3CC2(O)CC2)[C@H]1O5` [Compound 17a, 17-(1-hydroxylcyclopropylmethyl)-4,5α-epoxy-3,14β-dihydroxy-6β-((1S,2S)—N-methyl-2-(3-furyl)-cyclopropanecarboxamido)morphinan], the figures for the IC50 in assay [1], in assay [2] (setting [7]) and in assay [3] (setting [8]) were 1.22 nM, 4.96 nM and 43.1 nM, respectively. Also, the “Selectivity μ/k” value in assay [2] was 4.07. Besides, the “Selectivity δ/k” value in assay [3] was found to be 35.3.

On to `CN(C(=O)[C@@H]1C[C@H]1c1ccoc1)[C@@H]1CC[C@@]2(O)[C@H]3Cc4ccc(O)c5c4[C@@]2(CCN3CC2(O)CC2)[C@H]1O5` [Compound 17b], for which the IC50 came to 6.49 nM in assay [1], 45.4 nM in assay [2] (setting [7]) and 71.6 nM in assay [3] (setting [8]). For the same molecule, the “Selectivity μ/k” value in assay [2] stood at 6.99. The “Selectivity δ/k” value in assay [3] is on record as 11.0.

Take `CN(C(=O)[C@@H]1C[C@H]1c1ccsc1)[C@@H]1CC[C@@]2(O)[C@H]3Cc4ccc(O)c5c4[C@@]2(CCN3CC2(O)CC2)[C@H]1O5` [Compound 19b]: the values for the IC50 in assay [1], in assay [2] (setting [7]) and in assay [3] (setting [8]) were 0.46 nM, 5.98 nM and 147 nM, respectively. Also, the “Selectivity μ/k” value in assay [2] worked out at 13.0. For the same molecule, the “Selectivity δ/k” value in assay [3] was determined as 319.

On to `CN(C(=O)[C@@H]1C[C@H]1c1ccc(O)cc1)[C@H]1CC[C@@]2(O)[C@H]3Cc4ccc(O)c5c4[C@@]2(CCN3CC2(O)CC2)[C@H]1O5` [Compound 20b], for which the IC50 in assay [1] is 16 nM; in assay [2] (setting [7]) it was 8.08 nM; in assay [3] (setting [8]) it was 11.8 nM. The “Selectivity μ/k” value in assay [2] worked out at 0.50. For the same molecule, in assay [3], the “Selectivity δ/k” value is recorded as 0.73.

Consider `CN(C(=O)[C@@H]1C[C@H]1c1ccc(O)cc1)[C@@H]1CC[C@@]2(O)[C@H]3Cc4ccc(O)c5c4[C@@]2(CCN3CC2(O)CC2)[C@H]1O5` [Compound 21b], for which the IC50 in assay [1] was more than 200 nM; in assay [2] (setting [7]), 114 nM; in assay [3] (setting [8]), 385 nM. Further, the “Selectivity μ/k” value in assay [2] is listed as less than 0.57. Besides, the “Selectivity δ/k” value in assay [3] is listed as less than 1.93.

Values taken from US11214577B2, “Morphinans useful for treating medical disorders” (priority 2019, dated 2022).
